These results are taken from article PMC4467156, “A new chemical inhibitor of angiogenesis and tumorigenesis that targets the VEGF signaling pathway upstream of Ras” (Oncotarget, 2015).

One series has as its system Raf phosphorylation. Description: Western blot, Raf phosphorylation in HUVEC. Type of series: cell-based, human. The following applies: 10 ng/mL VEGF-A 15 min, 25 μM COB223. As to the method: (§1) Figure 11 Effect of COB223 on mitogenic or oncogenic activation of the Ras /MEK/ERK signaling pathway (A) Serum-starved HUVEC cells were incubated for 15 min in the presence of 10 ng/mL VEGF-A and in the absence or the presence of 25 μM COB223. The phosphorylations of PLCγ on tyrosine 783, of Raf on serine 338 or on serine 259 and of ERK1/2 were then analyzed by Western blot analysis of the cell lysates as described in Material and Methods. Western blots for total PLCγ, Raf and ERK1/2 were used as loading controls. (B) MCF10A cells overexpressing an oncogenic version of Ras (MCF10A-RasG12V) were treated for the indicated periods of time by 25 μM COB223. Total ERK1/2 and phospho-ERK1/2 were then visualized by Western blotting of the cell extracts. Non-treated regular MCF10A cells were analyzed as a control (first lane). (C) CCL-39 fibroblasts expressing a constitutively active Raf in an estrogen-responsive manner were stimulated for 3 h with estradiol and treated for 15 or 30 min with 25 μM COB223. Total ERK1/2 and phospho-ERK1/2 were then visualized by Western blotting of the cell extracts. Non-treated cells were analyzed as a control (left lanes).
Serum-starved HUVEC cells were incubated for 15 min in the presence of either 10 ng/mL VEGF-A or 20 ng/mL FGF-2 and in the absence or the presence of indicated concentration of COB223. COB223 was incubated 15 min prior to stimulation. […]
(In western blotting, separated proteins are transferred to a membrane and probed.)

Another series has as its system LLC/2 tumor. The series can be described thus: Mouse LLC/2 tumor model. Type of series: in vivo. On the procedure:
(§2) We chose this model because of its rapid growth in syngenic mice and its strong dependence on angiogenesis. LLC/2 cells (10^6 in 50 μL medium) were subcutaneously injected into the right flank of […] mice. Seven days after tumor inoculation, mice were given an intraperitoneal (i.p.) injection of either solvent (1.7% DMSO) or COB223 every other day. Tumor size was measured with calipers, and the volume was calculated according to the formula (L*w^2)/2 where L and […] stand for length and width respectively. All mice were killed 21 days after tumor grafting.
Tumors collected after animal sacrifice were split into two parts and fixed either in 4% paraformaldehyde (v/v) or in formalin fixative for 24 h at 4°C and embedded in paraffin and then cut into 7 μm sections. Sections were stained using specific antibodies and the avidin–biotin immunoperoxidase detection method. Endogenous peroxidase activity was quenched by pretreatment with 3% (v/v) hydrogen peroxide in methanol for 20 min. For endothelial immunohistochemistry detection, CD31 antibody (MEC13.3, BD Pharmingen) was incubated for 2 h at room temperature. The tissue sections were subsequently washed three times with PBS and incubated with biotinylated rabbit anti-rat IgG (1:250 dilution in blocking solution; Sigma-Aldrich, Saint-Quentin Fallavier, France) for 1 h at room temperature. After three PBS washes, the slides were incubated with an avidin: biotin complex (Vectastain ABC kit; Vector Laboratories, Burlingame, CA) for 45 minutes. After a final PBS wash, the immunoreactive proteins were visualized after the addition of 3,3′-diaminobenzidine (Dako, Trappes, France) for 2 min and then counterstained with hematoxylin. Control sections were treated without primary antibody.

The next series relates to LLC/2 cells. The series can be described thus: 3H-thymidine incorporation, LLC/2. Type of series: cell-based. The following applies: LLC/2 lung carcinoma cells; less efficiently than on endothelial cells. On the procedure:
Cells were treated with molecules in complete medium. After 22 h, 1 μCi per well H^3 thymidine was added for 2 hours. Cells are then fixed by 10% trichloroacetic acid and harvested with 0.2N NaOH, 1% SDS. Radioactivity was measured in a beta counter.
In general terms: Dividing cells build labelled thymidine or BrdU into new DNA.

The test system of another series is HMVECd cells. Description: Cell viability WST-1, HMVECd. The following applies: confluent HMVECd, 24 h at 37°C. In kind it is cell-based, human. As to the method: Once they had reached confluency, cells were kept for 24 hours in medium supplemented with 0.5% FCS (LLC/2 and 3T3 cells) or 2.5% FCS (HUVEC and HMVEC-d cells), in the presence of COB223 at different concentrations. WST-1 assay (Roche Diagnostic, Meylan, France) was then performed according to the manufacturer's instructions.
(In general: Tetrazolium assays rely on reduction of a dye to a coloured formazan, in cell work by metabolically active cells.)

The test system of series [1] is p38 MAP kinase phosphorylation. The series can be described thus: p38 MAP kinase phosphorylation in HUVEC. In kind it is cell-based, human. The following applies: data not shown.
For another series, the system named is ERK1/2 phosphorylation. The series can be described thus: ERK1/2 phosphorylation in MCF-10A cells expressing oncogenic RasG12V. The following applies: 25 μM COB223. Type of series: cell-based. On the procedure: as §1
Series [2] is described as follows: Tolerance in treated LLC/2 tumor-bearing mice. The note with it: two week-long treatment with up to 16 mg/kg i.p. Type of series: in vivo, mouse. On the procedure:
as §2

In the next series the target is FGFR2 (Homo sapiens, UniProt P21802). Description: In vitro kinase assay FGFR2. In kind it is biochemical. The following applies: concentrations up to 50 μM. As to the method: We first wondered whether COB223 required to be internalized to exert its biological effect. For this, we synthesized a covalent complex between BSA and COB223 and purified it. […] In vitro kinase assays were performed with a panel of purified protein-kinases involved in mitogenic signaling, including VEGFR2, FGFR1, FGFR2, PDGFRß, Met, Raf, MEK1, ERK1, ERK2, PKCα, PKCβI, PKCβII, PKCζ as indicated in Table 2. […] We then analyzed the effect of COB223 on VEGF-induced phosphorylations of VEGFR2, MEK and ERK1/2 (Figure 9). […] (Figure 9A, 9B). […] It was also specific of the p42/p44 MAP kinase pathway as activation of p38 MAP kinase phosphorylation in HUVEC cells by VEGF or serum was unaffected by COB223 (data not shown). The activation of src phosphorylation by VEGF in HUVECs was also unaffected by COB223 (data not shown).
Sequence of FGFR2 (P21802 22-821, species assumed): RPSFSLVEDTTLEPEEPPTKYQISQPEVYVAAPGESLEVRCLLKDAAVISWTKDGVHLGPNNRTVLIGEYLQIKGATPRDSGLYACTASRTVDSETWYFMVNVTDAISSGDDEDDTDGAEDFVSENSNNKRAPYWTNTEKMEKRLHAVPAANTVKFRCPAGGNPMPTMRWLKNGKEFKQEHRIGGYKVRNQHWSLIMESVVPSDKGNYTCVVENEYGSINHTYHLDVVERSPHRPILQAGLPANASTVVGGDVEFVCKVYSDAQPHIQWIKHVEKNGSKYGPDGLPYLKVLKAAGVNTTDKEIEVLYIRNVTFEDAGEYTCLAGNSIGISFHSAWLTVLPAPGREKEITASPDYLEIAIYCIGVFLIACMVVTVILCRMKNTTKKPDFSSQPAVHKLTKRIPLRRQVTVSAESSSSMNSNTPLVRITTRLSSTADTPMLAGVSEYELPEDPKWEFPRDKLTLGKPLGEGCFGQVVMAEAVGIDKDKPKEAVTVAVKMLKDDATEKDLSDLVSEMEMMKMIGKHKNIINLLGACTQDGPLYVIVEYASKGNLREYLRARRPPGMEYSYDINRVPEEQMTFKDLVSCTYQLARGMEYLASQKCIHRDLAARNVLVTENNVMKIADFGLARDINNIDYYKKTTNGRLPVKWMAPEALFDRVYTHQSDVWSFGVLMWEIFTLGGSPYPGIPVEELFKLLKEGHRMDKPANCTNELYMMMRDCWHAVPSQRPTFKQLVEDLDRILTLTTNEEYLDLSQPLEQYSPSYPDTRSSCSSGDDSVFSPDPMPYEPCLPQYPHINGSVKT

The mark [3] stands for this setting: non-necrotic part of treated tumors.

Consider `CN(C)c1cccc2c(S(=O)(=O)NCCCN3CCN(CCCNC(=O)OC(C)(C)C)CC3)cccc12` [COB223, tert-Butyl 3-(4-(3-(5-(dimethylamino)naphthalene-1-sulfonamido)propyl)piperazin-1-yl) propylcarbamate], for which, in the series on Raf phosphorylation, the “phosphorylation of Raf on residue S338” value was “inhibited”. Also, in the series with LLC/2 tumor (COB223-treated tumors (untreated 20%)), the “tumors with necrotic areas larger than 15% of their surface” value worked out at 60%. Besides, in the series on LLC/2 tumor (setting [3]), the “density of the microvessels (CD31)” value is given as “significant decrease” and the “size (luminal surface) of the microvessels (CD31)” value is “significant decrease”. Also, in the series on LLC/2 tumor (tumor sections), the “number of phospho-ERK1/2 and phospho-histone H3 positive cells” value is given as “significantly decreased”. Besides, the “effect on cell proliferation” value with LLC/2 cells is listed as “inhibited”. Also, the cytotoxic concentrations with HMVECd cells was > 50 µM. Besides, in series [1], the “activation of p38 MAP kinase phosphorylation by VEGF or serum” value is recorded as “unaffected”. In the series on ERK1/2 phosphorylation, the “constitutive phosphorylation of ERK1/2 induced by oncogenic RasG12V” value is recorded as “did not modify”. Further, the “tolerance, adverse effects” value in series [2] is listed as “no adverse effect was observed”. Also, the “kinase inhibition” value at FGFR2 is given as “None of them was inhibited”.
